{"source": "patent US11358949B2", "about": "“Carbamate and urea compounds as multikinase inhibitors” (ANGEX PHARMACEUTICAL, INC., priority 2017, dated 2022)", "key": {"MNK2": {"target": "MNK2 (Homo sapiens, UniProt Q9HBH9)", "sequence (Q9HBH9 whole entry)": "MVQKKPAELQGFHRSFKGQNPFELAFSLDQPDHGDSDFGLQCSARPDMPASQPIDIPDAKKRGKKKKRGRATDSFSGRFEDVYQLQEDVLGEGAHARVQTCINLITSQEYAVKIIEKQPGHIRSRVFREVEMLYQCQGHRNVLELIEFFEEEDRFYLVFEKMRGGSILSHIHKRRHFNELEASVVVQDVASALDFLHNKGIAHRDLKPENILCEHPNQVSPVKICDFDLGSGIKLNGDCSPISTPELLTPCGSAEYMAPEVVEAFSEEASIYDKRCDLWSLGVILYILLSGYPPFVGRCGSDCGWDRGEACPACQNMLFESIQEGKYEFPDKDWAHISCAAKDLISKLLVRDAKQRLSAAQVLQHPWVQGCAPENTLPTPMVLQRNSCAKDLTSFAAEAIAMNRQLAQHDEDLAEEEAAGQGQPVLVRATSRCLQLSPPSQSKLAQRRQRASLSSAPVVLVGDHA", "test": "HotSpot Kinase Assay, MNK2", "method": "(§1) Specifically, for each reaction, kinase and substrate were mixed in a pH 7.5 buffer containing 20 mM HEPES, 10 mM MgCl2, 1 mM EGTA [Ethylene glycol-bis(2-aminoethylether)-N,N,N′,N′-tetraacetic acid], 0.02% Brij35, 0.02 mg/mL BSA (Bovine Serum Albumin), 0.1 mM Na3VO4, 2 mM DTT, and 1% DMSO. Compounds were then added to each reaction mixture. After a 20-min incubation, ATP (Sigma-Aldrich) and [γ-^33P] ATP (PerkinElmer) were added at a final total concentration of 100 μM. Reactions were carried out at room temperature for 2 hours and spotted onto P81 ion exchange cellulose chromatography paper (Whatman). […] The percent remaining kinase activity relative to a vehicle-containing (DMSO) kinase reaction was calculated for each kinase/inhibitor pair. […] IC50 values were calculated using Prism 5 (GraphPad)."}, "LOK/STK10": {"target": "LOK/STK10 (Homo sapiens, UniProt O94804)", "sequence (O94804 whole entry)": "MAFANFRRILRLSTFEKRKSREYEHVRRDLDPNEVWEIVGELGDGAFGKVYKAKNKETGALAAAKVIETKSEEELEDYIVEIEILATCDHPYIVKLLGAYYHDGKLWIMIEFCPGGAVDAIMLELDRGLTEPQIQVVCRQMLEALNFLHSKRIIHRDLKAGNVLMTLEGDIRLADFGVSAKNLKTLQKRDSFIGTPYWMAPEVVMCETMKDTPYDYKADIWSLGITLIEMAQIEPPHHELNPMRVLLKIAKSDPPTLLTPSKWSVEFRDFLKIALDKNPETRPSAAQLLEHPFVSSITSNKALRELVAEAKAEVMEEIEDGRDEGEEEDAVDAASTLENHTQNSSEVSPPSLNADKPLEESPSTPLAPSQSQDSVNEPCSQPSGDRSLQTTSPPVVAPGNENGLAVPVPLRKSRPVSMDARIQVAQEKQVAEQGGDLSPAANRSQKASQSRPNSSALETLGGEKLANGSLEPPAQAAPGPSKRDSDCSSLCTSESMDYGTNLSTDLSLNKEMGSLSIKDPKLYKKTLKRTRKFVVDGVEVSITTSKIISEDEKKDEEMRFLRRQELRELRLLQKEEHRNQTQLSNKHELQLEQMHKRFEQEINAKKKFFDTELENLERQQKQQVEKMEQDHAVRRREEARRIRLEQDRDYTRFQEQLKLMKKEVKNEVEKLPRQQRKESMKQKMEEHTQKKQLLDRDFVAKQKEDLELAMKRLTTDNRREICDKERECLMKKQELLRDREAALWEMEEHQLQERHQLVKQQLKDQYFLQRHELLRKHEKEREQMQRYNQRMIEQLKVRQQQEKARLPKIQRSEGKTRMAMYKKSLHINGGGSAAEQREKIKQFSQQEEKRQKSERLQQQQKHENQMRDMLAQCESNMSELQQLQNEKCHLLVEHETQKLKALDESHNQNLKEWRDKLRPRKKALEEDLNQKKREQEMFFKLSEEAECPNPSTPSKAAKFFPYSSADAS", "test": "HotSpot Kinase Assay, LOK/STK10", "method": "as §1"}, "FLT4": {"target": "FLT4 (Homo sapiens, UniProt P35916)", "test": "HotSpot Kinase Assay, FLT4", "method": "as §1"}, "TYRO3/SKY": {"target": "T1, TYRO3/SKY (Homo sapiens, UniProt Q06418)", "T1 sequence (Q06418 41-890)": "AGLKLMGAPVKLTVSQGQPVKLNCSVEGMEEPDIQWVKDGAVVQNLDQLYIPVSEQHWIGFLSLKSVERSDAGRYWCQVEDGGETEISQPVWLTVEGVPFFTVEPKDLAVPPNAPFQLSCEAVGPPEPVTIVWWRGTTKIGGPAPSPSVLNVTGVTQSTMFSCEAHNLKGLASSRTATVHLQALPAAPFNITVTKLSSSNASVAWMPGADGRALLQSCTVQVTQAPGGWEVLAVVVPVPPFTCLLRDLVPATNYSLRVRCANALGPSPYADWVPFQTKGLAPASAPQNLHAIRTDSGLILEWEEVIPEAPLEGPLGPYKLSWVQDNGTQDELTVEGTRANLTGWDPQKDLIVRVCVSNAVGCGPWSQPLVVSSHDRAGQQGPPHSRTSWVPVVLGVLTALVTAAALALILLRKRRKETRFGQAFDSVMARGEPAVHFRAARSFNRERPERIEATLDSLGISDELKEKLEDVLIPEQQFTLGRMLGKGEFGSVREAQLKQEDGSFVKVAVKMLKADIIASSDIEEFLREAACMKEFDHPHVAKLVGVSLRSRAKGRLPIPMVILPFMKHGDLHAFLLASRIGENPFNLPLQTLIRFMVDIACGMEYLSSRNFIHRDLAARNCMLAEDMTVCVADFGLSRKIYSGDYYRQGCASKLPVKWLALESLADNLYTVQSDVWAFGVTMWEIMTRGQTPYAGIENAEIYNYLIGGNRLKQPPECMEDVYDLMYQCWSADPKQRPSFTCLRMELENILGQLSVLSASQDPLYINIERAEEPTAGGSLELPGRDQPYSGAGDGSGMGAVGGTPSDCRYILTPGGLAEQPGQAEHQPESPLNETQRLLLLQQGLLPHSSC", "test": "HotSpot Kinase Assay, TYRO3/SKY"}, "c-MER": {"target": "T2, c-MER (Homo sapiens, UniProt Q12866)", "T2 sequence (Q12866 21-999)": "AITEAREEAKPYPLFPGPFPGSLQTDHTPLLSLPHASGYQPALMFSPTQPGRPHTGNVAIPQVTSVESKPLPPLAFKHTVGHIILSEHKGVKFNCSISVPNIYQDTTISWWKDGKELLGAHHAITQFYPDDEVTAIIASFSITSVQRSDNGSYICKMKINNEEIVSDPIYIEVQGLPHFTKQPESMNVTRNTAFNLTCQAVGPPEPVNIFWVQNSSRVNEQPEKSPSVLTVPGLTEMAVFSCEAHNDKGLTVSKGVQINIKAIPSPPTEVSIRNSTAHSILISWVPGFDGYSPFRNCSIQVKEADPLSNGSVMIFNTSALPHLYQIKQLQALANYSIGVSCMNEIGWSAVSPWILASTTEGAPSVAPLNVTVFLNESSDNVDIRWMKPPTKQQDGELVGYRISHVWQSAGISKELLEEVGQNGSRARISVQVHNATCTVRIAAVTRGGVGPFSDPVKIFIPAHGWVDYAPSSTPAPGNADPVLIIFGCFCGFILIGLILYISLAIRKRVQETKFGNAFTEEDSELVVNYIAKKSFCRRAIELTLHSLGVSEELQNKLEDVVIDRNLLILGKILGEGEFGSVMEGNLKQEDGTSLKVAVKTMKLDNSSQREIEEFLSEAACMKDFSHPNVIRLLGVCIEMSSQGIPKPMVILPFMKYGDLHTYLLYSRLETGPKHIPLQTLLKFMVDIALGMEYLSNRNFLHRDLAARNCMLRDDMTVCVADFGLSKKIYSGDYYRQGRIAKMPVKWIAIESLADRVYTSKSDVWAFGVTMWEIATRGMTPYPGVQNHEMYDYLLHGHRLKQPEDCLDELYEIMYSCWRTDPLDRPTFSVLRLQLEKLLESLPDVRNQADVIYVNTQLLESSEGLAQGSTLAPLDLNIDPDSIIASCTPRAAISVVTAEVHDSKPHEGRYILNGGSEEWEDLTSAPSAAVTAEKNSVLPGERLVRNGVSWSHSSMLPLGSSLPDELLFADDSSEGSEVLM", "test": "HotSpot Kinase Assay, c-MER"}, "FRK/PTK5": {"target": "FRK/PTK5 (Homo sapiens, UniProt P42685)", "sequence (P42685 whole entry)": "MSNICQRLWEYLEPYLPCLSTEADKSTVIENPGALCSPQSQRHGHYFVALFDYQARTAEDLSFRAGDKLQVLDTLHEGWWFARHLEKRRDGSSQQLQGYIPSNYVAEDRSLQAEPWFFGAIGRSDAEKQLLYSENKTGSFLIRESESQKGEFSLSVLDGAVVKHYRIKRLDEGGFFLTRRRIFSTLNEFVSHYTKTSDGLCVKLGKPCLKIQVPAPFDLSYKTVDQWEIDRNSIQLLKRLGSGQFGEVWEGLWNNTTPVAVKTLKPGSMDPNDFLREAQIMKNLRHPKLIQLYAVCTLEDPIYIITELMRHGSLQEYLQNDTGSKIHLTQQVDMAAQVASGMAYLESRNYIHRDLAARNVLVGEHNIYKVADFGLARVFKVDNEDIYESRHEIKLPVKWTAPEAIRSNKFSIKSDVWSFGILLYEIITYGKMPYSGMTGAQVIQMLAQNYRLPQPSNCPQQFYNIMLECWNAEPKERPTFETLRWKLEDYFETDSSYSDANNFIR", "test": "HotSpot Kinase Assay, FRK/PTK5", "method": "as §1"}, "FLT1": {"target": "FLT1 (Homo sapiens, UniProt P17948)", "sequence (P17948 27-1338)": "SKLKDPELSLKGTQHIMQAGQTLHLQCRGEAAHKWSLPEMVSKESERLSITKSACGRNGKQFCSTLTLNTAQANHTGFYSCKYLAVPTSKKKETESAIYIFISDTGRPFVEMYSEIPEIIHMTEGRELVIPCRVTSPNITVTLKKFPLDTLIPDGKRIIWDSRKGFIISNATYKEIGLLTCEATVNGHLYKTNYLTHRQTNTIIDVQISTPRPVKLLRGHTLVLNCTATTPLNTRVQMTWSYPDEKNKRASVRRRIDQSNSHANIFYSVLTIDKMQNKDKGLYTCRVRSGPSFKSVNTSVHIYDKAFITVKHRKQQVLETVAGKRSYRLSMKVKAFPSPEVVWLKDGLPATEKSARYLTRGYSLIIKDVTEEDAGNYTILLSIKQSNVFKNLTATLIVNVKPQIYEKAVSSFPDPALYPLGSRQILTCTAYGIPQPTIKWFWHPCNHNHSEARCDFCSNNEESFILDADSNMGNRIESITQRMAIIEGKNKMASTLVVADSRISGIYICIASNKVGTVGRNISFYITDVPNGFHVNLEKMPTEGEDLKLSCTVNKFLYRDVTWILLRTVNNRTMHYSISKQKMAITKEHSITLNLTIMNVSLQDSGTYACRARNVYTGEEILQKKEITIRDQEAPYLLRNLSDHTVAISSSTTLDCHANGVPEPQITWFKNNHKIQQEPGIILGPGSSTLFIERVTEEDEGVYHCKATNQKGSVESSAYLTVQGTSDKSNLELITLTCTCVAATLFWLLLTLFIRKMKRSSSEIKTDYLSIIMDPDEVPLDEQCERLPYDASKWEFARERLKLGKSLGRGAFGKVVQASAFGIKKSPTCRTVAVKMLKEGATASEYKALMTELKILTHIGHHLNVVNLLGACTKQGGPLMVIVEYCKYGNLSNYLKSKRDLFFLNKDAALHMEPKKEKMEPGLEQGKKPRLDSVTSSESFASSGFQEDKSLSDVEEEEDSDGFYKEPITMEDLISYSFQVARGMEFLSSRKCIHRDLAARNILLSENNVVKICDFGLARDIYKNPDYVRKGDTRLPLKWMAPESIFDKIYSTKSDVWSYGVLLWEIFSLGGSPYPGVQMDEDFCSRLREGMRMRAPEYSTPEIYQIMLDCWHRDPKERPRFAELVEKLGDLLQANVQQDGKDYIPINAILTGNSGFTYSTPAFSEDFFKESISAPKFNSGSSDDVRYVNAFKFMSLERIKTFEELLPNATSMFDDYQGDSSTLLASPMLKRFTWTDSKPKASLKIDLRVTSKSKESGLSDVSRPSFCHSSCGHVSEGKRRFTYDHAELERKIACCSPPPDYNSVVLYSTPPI", "test": "HotSpot Kinase Assay, FLT1", "method": "as §1"}, "BLK": {"target": "BLK (Homo sapiens, UniProt P51451)", "sequence (P51451 whole entry)": "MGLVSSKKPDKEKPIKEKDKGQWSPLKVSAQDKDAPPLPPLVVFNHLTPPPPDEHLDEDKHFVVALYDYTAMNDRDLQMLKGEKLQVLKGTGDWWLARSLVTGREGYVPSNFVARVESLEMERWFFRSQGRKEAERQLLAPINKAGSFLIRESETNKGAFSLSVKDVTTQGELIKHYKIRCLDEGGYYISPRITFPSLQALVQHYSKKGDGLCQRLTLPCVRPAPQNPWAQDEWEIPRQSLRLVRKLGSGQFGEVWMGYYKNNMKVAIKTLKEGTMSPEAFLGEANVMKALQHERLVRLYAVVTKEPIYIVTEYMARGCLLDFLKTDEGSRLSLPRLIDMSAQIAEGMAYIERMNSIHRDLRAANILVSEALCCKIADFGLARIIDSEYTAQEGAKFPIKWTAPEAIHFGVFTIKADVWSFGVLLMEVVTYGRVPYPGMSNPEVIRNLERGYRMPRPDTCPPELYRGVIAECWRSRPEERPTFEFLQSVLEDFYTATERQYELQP", "test": "HotSpot Kinase Assay, BLK", "method": "as §1"}, "PLK4/SAK": {"target": "PLK4/SAK (Homo sapiens, UniProt O00444)", "test": "HotSpot Kinase Assay, PLK4/SAK", "method": "as §1"}, "EPHB1": {"target": "EPHB1 (Homo sapiens, UniProt P54762)", "test": "HotSpot Kinase Assay, EPHB1", "method": "as §1"}, "c-MET": {"target": "c-MET (Homo sapiens, UniProt P08581)", "test": "HotSpot Kinase Assay, c-MET", "method": "as §1"}, "EPHA4": {"target": "EPHA4 (Homo sapiens, UniProt P54764)", "test": "HotSpot Kinase Assay, EPHA4", "method": "as §1"}, "MEK5": {"target": "MEK5 (Homo sapiens, UniProt Q13163)", "sequence (Q13163 whole entry)": "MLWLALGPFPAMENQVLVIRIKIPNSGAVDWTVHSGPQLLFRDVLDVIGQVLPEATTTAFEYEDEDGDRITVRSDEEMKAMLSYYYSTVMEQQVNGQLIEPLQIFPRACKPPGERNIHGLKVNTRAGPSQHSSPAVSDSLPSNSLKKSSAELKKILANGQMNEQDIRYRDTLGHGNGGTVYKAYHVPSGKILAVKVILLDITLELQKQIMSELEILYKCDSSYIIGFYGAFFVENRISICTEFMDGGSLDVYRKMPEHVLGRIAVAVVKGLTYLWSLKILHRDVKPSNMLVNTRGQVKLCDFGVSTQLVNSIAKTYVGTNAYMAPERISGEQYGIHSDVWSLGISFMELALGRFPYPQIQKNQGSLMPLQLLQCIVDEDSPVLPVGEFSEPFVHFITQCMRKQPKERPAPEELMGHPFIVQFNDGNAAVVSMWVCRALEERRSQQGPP", "test": "HotSpot Kinase Assay, MEK5", "method": "as §1"}, "BRK": {"target": "BRK (Homo sapiens, UniProt Q13882)", "sequence (Q13882 whole entry)": "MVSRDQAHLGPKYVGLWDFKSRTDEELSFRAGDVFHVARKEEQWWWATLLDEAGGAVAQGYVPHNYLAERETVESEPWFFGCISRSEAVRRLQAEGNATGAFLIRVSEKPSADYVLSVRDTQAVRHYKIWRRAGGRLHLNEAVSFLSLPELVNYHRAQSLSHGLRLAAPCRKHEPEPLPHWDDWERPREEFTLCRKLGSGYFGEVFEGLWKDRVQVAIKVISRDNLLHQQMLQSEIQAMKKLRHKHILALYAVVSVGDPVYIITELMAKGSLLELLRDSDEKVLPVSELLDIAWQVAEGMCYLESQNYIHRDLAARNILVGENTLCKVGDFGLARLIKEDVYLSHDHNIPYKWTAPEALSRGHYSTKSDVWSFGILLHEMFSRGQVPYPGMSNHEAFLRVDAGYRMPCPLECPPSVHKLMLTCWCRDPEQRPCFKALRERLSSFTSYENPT", "test": "HotSpot Kinase Assay, BRK", "method": "as §1"}, "MEK1": {"target": "MEK1 (Homo sapiens, UniProt Q02750)", "sequence (Q02750 whole entry)": "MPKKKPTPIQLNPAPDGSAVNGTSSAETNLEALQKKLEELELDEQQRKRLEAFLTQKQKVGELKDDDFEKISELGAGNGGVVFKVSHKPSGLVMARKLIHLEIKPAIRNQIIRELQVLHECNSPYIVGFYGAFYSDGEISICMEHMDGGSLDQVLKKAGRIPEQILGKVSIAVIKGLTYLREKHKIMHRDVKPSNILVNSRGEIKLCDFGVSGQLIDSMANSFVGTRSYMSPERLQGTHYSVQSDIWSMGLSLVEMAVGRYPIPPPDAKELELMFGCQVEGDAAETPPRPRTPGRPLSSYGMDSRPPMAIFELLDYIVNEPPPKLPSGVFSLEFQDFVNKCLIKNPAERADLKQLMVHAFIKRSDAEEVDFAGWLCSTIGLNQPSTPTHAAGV", "test": "HotSpot Kinase Assay, MEK1", "method": "as §1"}, "c-Kit": {"target": "c-Kit (Homo sapiens, UniProt P10721)", "test": "HotSpot Kinase Assay, c-Kit", "method": "as §1"}}}
{"smiles": "COc1cc2c(Oc3ccc(NC(=O)C4(C(=O)Nc5ccc(F)cc5)CC4)cc3)ccnc2cc1OC(=O)N1CCN(C)CC1", "note": "[Compound 1-10]", "values": [{"measurement": "IC50", "setting": "MNK2", "result": "0.1 to 1", "unit": "µM"}, {"measurement": "IC50", "setting": "LOK/STK10", "result": "0.1 to 1", "unit": "µM"}, {"measurement": "IC50", "setting": "FLT4", "result": "0.1 to 1", "unit": "µM"}, {"measurement": "IC50", "setting": "TYRO3/SKY", "result": "0.1 to 1", "unit": "µM"}, {"measurement": "IC50", "setting": "c-MER", "result": "< 0.1", "unit": "µM"}, {"measurement": "IC50", "setting": "FRK/PTK5", "result": "> 1", "unit": "µM"}, {"measurement": "IC50", "setting": "FLT1", "result": "0.1 to 1", "unit": "µM"}, {"measurement": "IC50", "setting": "BLK", "result": "> 1", "unit": "µM"}, {"measurement": "IC50", "setting": "PLK4/SAK", "result": "> 1", "unit": "µM"}, {"measurement": "IC50", "setting": "EPHB1", "result": "0.1 to 1", "unit": "µM"}, {"measurement": "IC50", "setting": "c-MET", "result": "< 0.1", "unit": "µM"}, {"measurement": "IC50", "setting": "EPHA4", "result": "0.1 to 1", "unit": "µM"}, {"measurement": "IC50", "setting": "MEK5", "result": "> 1", "unit": "µM"}, {"measurement": "IC50", "setting": "BRK", "result": "< 0.1", "unit": "µM"}, {"measurement": "IC50", "setting": "MEK1", "result": "> 1", "unit": "µM"}, {"measurement": "IC50", "setting": "c-Kit", "result": "< 0.1", "unit": "µM"}]}
